In patent US20230383129A1, “ANTIFOULING COMPOUNDS” (I-Tech AB, priority 2020, published 2023):

Experiments:
[1] = system: barnacle cyprid larva; details: barnacles; cited from earlier work
[2] = Stability/hydrolysis of monomers in ethanol and PBS buffer followed by TLC (Setup 1); type: physicochemical; details: after two weeks
Method: The stability of the carbamate-(M3), urea-(M4) and sulfonylderivative of medetomidine (M2 and M0) were studied in ethanol and phosphate-buffered saline (PBS) buffer. Thin-layer chromatography (TLC) was used to follow the decomposition of the derivatives to free medetomidine. It took approximately two weeks until most of the derivatives stored at room temperature to decompose. If the storage temperature was +6° C. no decomposition was observed.
Nine vials were prepared. Vial 1 contained reference compound medetomidine dissolved in ethanol (1 ml). Substance M2 (25 mg) was added to vial 2 and 3. Substance M3 (25 mg) was added to vial 4 and 5. Substance M4 (25 mg) was added to vial 6 and 7 and substance M0 was added to vial 8 and 9. The solid material in vials 2 to 9 were dissolved in ethanol (1 ml) and PBS buffer pH 7.4 (1 ml) to mimic sea water containing different salts and having a pH slightly basic. Ethanol was chosen as solvent to increase the solubility of the substances. During the study vial 1, 3, 5, 7 and 9 were stored at room temperature, whereas vial 2, 4, 6 and 8 were stored in a refrigerator at +6° C. Stability of the compounds was studied after 0, 1, 2, 5, 6, 9, 13 and 15 days using TLC and dichloromethane—methanol (95-5) as eluent.

[3] = Release of I from monomers into artificial seawater, LC-MS (Setup 2); type: physicochemical; details: for Concentration of I released: artificial seawater 3% NaCl pH 8.0, ambient temperature; for Concentration of I (near constant over the study): artificial seawater, days 10-25
Method: The stability of M1 and M4 was evaluated via quantification of the release of I into artificial seawater (3% NaCl, pH 8.0). For the experiments, compound M1 (0.023 g) was suspended in 5 mL artificial seawater, while M4 (0.044 g) were suspended in 10 mL artificial seawater. The solutions were stirred (300 rpm) at ambient temperatures and samples were collected at 10, 15, 20 and 25 days. The samples were stored in freezer 2-2.5 months prior to LC-MS analysis.
Samples from the release studies were analyzed using LC-MS. The LC-MS system was composed of an Acquity I-class UPLC with a Waters Xevo G2-S Qtof. The chromatographic separation was obtained on a C18 column with gradient elution (Eluent A, 0.1% NH4 in MQ-water and Eluent B, 100% acetonitrile). The samples (from freezer) were extracted with hexane and the organic extracts were analyzed by LC-MS. Three external calibration curves for I, M1 and M4 were prepared the same way as the samples and used for quantification.

[4] = ethanol/PBS buffer pH 7.4, refrigerator +6° C.
[5] = ethanol/PBS buffer pH 7.4, room temperature

SMILES: Cc1cccc(C(C)c2c[nH]cn2)c1C (racemic) [medetomidine, (±)-4-[1-(2,3-dimethylphenyl)ethyl)-1H-imidazole]
- concentration impeding larval settlement [1]: 1 to 10 nM

SMILES: Cc1cccc(C(C)c2cn(S(C)(=O)=O)cn2)c1C (stereo not drawn) [Compound M0, 4-[1-(2,3-dimethylphenyl)ethyl]-1-(methanesulfonyl)-1H-imidazole]
- decomposition to free medetomidine (TLC) [2, 4]: stable
- decomposition to free medetomidine (TLC) [2, 5]: stable

SMILES: C=C(C)C(=O)n1cnc(C(C)c2cccc(C)c2C)c1 (stereo not drawn) [Compound M1, 1-{4-[1-(2,3-dimethylphenyl)ethyl]-1H-imidazol-1-yl}-2-methylprop-2-en-1-one]
- Concentration of I released ([3]; incubation 10 days): 9330.0 ng/mL
- Concentration of I released ([3]; incubation 15 days): 9905.8 ng/mL
- Concentration of I released ([3]; incubation 20 days): 9748.8 ng/mL
- Concentration of I released ([3]; incubation 25 days): 9820.4 ng/mL
- Concentration of I (near constant over the study) [3]: ~9000 ng/mL

SMILES: C=CCS(=O)(=O)n1cnc(C(C)c2cccc(C)c2C)c1 (stereo not drawn) [Compound M2, 4-[1-(2,3-dimethylphenyl)ethyl]-1-(prop-2-ene-1-sulfonyl)-1H-imidazole]
- decomposition to free medetomidine (TLC) [2, 4]: mixture of medetomidine and the starting material
- decomposition to free medetomidine (TLC) [2, 5]: only medetomidine

SMILES: C=CCOC(=O)n1cnc(C(C)c2cccc(C)c2C)c1 (stereo not drawn) [Compound M3, prop-2-en-1-yl 4-[1-(2,3-dimethylphenyl)ethyl]-1H-imidazole-1-carboxylate]
- decomposition to free medetomidine (TLC) [2, 4]: mixture of medetomidine and the starting material
- decomposition to free medetomidine (TLC) [2, 5]: only medetomidine

SMILES: C=CCNC(=O)n1cnc(C(C)c2cccc(C)c2C)c1 (stereo not drawn) [Compound M4, 4-[1-(2,3-dimethylphenyl)ethyl]-N-(prop-2-en-1-yl)-1H-imidazole-1-carboxamide]
- Concentration of I released ([3]; incubation 10 days): 5028.9 ng/mL
- Concentration of I released ([3]; incubation 15 days): 5592.2 ng/mL
- Concentration of I released ([3]; incubation 20 days): 5078.0 ng/mL
- Concentration of I (near constant over the study) [3]: ~5000 ng/mL
- decomposition to free medetomidine (TLC) [2, 4]: stable
- decomposition to free medetomidine (TLC) [2, 5]: decomposition to medetomidine as well as non-hydrolyzed M4
